From patent publication US9695155B2, “Herbicidal substituted pyrimidinyloxy benzene compounds” (E. I. DU PONT DE NEMOURS AND COMPANY, priority 2013, dated 2017)

How the values were obtained:
cocklebur = assay: Test E preemergence; type: in vivo, Xanthium strumarium; conditions: for Cocklebur plant response rating: scale 0 to 100 (0 no effect, 100 complete control); for Plant response rating, Cocklebur: scale 0 to 100, 0 no effect, 100 complete control
In short: (§1)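 Compound in a non-phytotoxic solvent mixture with surfactant was applied preemergence to seeds in silt loam soil, or postemergence to plants 2 to 18 cm tall grown in peat-based potting medium. Plants were kept in a greenhouse for 14 to 21 days, then rated visually against untreated controls on a 0 (no effect) to 100 (complete control) scale.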

yellow nutsedge = assay: Test E preemergence; type: in vivo, Cyperus esculentus; conditions: for Nutsedge, Yellow plant response rating: scale 0 to 100 (0 no effect, 100 complete control)
In short: as §1

lambsquarters = assay: Test E preemergence; type: in vivo, Chenopodium album; conditions: for Lambsquarters plant response rating: scale 0 to 100 (0 no effect, 100 complete control)
In short: as §1

large (Lg) crabgrass = assay: Test E preemergence; type: in vivo, Digitaria sanguinalis; conditions: for Crabgrass, Large plant response rating: scale 0 to 100 (0 no effect, 100 complete control)
In short: as §1

Italian ryegrass = assay: Test E preemergence; type: in vivo, Lolium multiflorum; conditions: for Ryegrass, Italian plant response rating: scale 0 to 100 (0 no effect, 100 complete control)
In short: as §1

blackgrass = assay: Test D postemergence; type: in vivo, Alopecurus myosuroides; conditions: Alopecurus myosuroides, post-emergence, Postemergence, scale 0 to 100 (0 no effect, 100 complete control), read-out: Plant response rating, Blackgrass; for pest or weed control at 62 g/ha: 62 g ai/ha; for pest or weed control at 31 g/ha: 31 g ai/ha; for pest or weed control at 125 g/ha: 125 g ai/ha; for pest or weed control at 250 g/ha: 250 g ai/ha; for pest or weed control at 16 g/ha: 16 g ai/ha
In short: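 In a controlled growth environment, treated and control plants were held 7 to 21 days, then compared visually. Damage was scored 0–100, where 100 means complete control. Sprays contained surfactant in a non-phytotoxic solvent; post-applied plants were at the 1- to 4-leaf stage.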

dayflower = assay: Test E preemergence; type: in vivo, Commelina virginica; conditions: for Dayflower, VA plant response rating: scale 0 to 100 (0 no effect, 100 complete control)
In short: as §1

[1] = 125 g ai/ha, scale 0 to 100, 0 no effect, 100 complete control
[2] = 250 g ai/ha, scale 0 to 100, 0 no effect, 100 complete control
[3] = 8 g ai/ha, scale 0 to 100, 0 is no effect, 100 is complete control

| SMILES | Nutsedge, Yellow plant response rating (yellow nutsedge; 16 g ai/ha) | Nutsedge, Yellow plant response rating (yellow nutsedge; 31 g ai/ha) | Nutsedge, Yellow plant response rating (yellow nutsedge; 62 g ai/ha) | Plant response rating, Nutsedge, Yellow (yellow nutsedge; [1]) | Lambsquarters plant response rating (lambsquarters; 16 g ai/ha) | Lambsquarters plant response rating (lambsquarters; 31 g ai/ha) | Lambsquarters plant response rating (lambsquarters; 62 g ai/ha) | Plant response rating, Lambsquarters (lambsquarters; [1]) | Crabgrass, Large plant response rating (large (Lg) crabgrass; 16 g ai/ha) | Crabgrass, Large plant response rating (large (Lg) crabgrass; 31 g ai/ha) | Crabgrass, Large plant response rating (large (Lg) crabgrass; 62 g ai/ha) | Plant response rating, Crabgrass, Large (large (Lg) crabgrass; [1]) | Ryegrass, Italian plant response rating (Italian ryegrass; 16 g ai/ha) | Ryegrass, Italian plant response rating (Italian ryegrass; 31 g ai/ha) | Ryegrass, Italian plant response rating (Italian ryegrass; 62 g ai/ha) | Plant response rating, Ryegrass, Italian (Italian ryegrass; [1]) | pest or weed control at 62 g/ha (blackgrass) [%] | pest or weed control at 31 g/ha (blackgrass) [%] | pest or weed control at 125 g/ha (blackgrass) [%] | pest or weed control at 250 g/ha (blackgrass) [%] | further results |
| --- | --- | --- | --- | --- | --- | --- | --- | --- | --- | --- | --- | --- | --- | --- | --- | --- | --- | --- | --- | --- | --- |
| N#Cc1cccc(Oc2ncc(Br)cn2)c1-n1cc(C(F)(F)F)cn1 [Compound 59, 3-[(5-bromo-2-pyrimidinyl)oxy]-2-[4-(trifluoromethyl)-1H-pyrazol-1-yl]benzonitrile] | 0 | 0 | 0 | 30 | 98 | 98 | 100 | 100 | 5 | 95 | 100 | 100 | 0 | 0 | 50 | 75 | 30 | 25 | 40 | 70 | Cocklebur plant response rating (cocklebur; 31 g ai/ha): 0; Cocklebur plant response rating (cocklebur; 62 g ai/ha): 0; Plant response rating, Cocklebur (cocklebur; 250 g ai/ha): 0; Plant response rating, Nutsedge, Yellow (yellow nutsedge; [2]): 50; Plant response rating, Lambsquarters (lambsquarters; [2]): 100; Plant response rating, Crabgrass, Large (large (Lg) crabgrass; [2]): 100; Plant response rating, Ryegrass, Italian (Italian ryegrass; [2]): 95; Dayflower, VA plant response rating (dayflower; 16 g ai/ha): 0; Dayflower, VA plant response rating (dayflower; 31 g ai/ha): 5; Dayflower, VA plant response rating (dayflower; 62 g ai/ha): 25; Plant response rating, Dayflower, VA (dayflower; [1]): 85; Plant response rating, Dayflower, VA (dayflower; [2]): 98 |
| N#Cc1cccc(Oc2ncc(Cl)cn2)c1-n1cc(C(F)(F)F)cn1 [Compound 58, 3-[(5-chloro-2-pyrimidinyl)oxy]-2-[4-(trifluoromethyl)-1H-pyrazol-1-yl]benzonitrile] | 0 | 5 | 25 | 60 | 98 | 98 | 98 | 98 | 75 | 100 | 100 | 100 | 30 | 35 | 75 | 98 | 45 | 20 | 70 | 90 | Cocklebur plant response rating (cocklebur; 31 g ai/ha): 0; Plant response rating, Cocklebur (cocklebur; 125 g ai/ha): 0; Plant response rating, Cocklebur (cocklebur; 250 g ai/ha): 50; Plant response rating, Nutsedge, Yellow (yellow nutsedge; [2]): 80; Plant response rating, Lambsquarters (lambsquarters; [2]): 98; Plant response rating, Crabgrass, Large (large (Lg) crabgrass; [2]): 100; Plant response rating, Ryegrass, Italian (Italian ryegrass; [2]): 98; Dayflower, VA plant response rating (dayflower; 16 g ai/ha): 5; Dayflower, VA plant response rating (dayflower; 31 g ai/ha): 20; Dayflower, VA plant response rating (dayflower; 62 g ai/ha): 70; Plant response rating, Dayflower, VA (dayflower; [1]): 98; Plant response rating, Dayflower, VA (dayflower; [2]): 98 |
| FC(F)(F)c1cnn(-c2ccccc2Oc2ncc(Br)cn2)c1 [Compound 18, 5-bromo-2-[2-[4-(trifluoromethyl)-1H-pyrazol-1-yl]phenoxy]pyrimidine] | 0 | 0 | 0 | 0 | 80 | 90 | 98 | 98 | 0 | 0 | 40 | 100 | 0 | 0 | 0 | 20 | 15 | 15 | 20 | 35 | Cocklebur plant response rating (cocklebur; 62 g ai/ha): 0; Plant response rating, Nutsedge, Yellow (yellow nutsedge; [2]): 10; Plant response rating, Lambsquarters (lambsquarters; [2]): 98; Plant response rating, Crabgrass, Large (large (Lg) crabgrass; [2]): 100; Plant response rating, Ryegrass, Italian (Italian ryegrass; [2]): 35; pest or weed control at 16 g/ha (blackgrass): 10%; Dayflower, VA plant response rating (dayflower; 16 g ai/ha): 0; Dayflower, VA plant response rating (dayflower; 31 g ai/ha): 0; Dayflower, VA plant response rating (dayflower; 62 g ai/ha): 35; Plant response rating, Dayflower, VA (dayflower; [1]): 95; Plant response rating, Dayflower, VA (dayflower; [2]): 98 |
| Clc1cnc(Oc2ccccc2-n2cc(Br)cn2)nc1 [Compound 7, 2-[2-(4-bromo-1H-pyrazol-1-yl)phenoxy]-5-chloropyrimidine] | 0 | 0 | 0 | 0 | 0 | 75 | 98 | 100 | 0 | 70 | 75 | 98 | 0 | 0 | 0 | 20 | 5 | 5 | 10 | 25 | Plant response rating, Cocklebur (cocklebur; 125 g ai/ha): 0; Plant response rating, Nutsedge, Yellow (yellow nutsedge; [3]): 0; Plant response rating, Lambsquarters (lambsquarters; [3]): 0; Plant response rating, Crabgrass, Large (large (Lg) crabgrass; [3]): 0; Plant response rating, Ryegrass, Italian (Italian ryegrass; [3]): 0; pest or weed control at 16 g/ha (blackgrass): 0%; Plant response rating, Dayflower, VA (dayflower; [3]): 0; Dayflower, VA plant response rating (dayflower; 16 g ai/ha): 0; Dayflower, VA plant response rating (dayflower; 31 g ai/ha): 0; Dayflower, VA plant response rating (dayflower; 62 g ai/ha): 20; Plant response rating, Dayflower, VA (dayflower; [1]): 65 |
